# Legend:
# Hepa1c1c-7 cells = assay: MTT cytotoxicity assay in Hepa1c1c-7 cells; type: cell-based, mouse; conditions: 0 to 500 μM AzA, 24 hours, compared with control group
# [1] = system: fatty liver-induced mouse; assay: Fatty liver inhibitory effect in high-fat diet fatty liver-induced wild-type C57BL/6J mouse; type: in vivo; conditions: WT mouse
# Experimental: (§1) Mice used in the example, which were an eight-week-old C57BL/6J model, were purchased from Samtako, and Olfr544 KO mice were manufactured by Macrogen based on the C57BL/6J model using a CRISPR/Cas9 system. All experiments performed in the example are compliant to a protocol approved by the Animal Experiment Ethics Committee at Korea University (Protocol No. KUIACUC-20170322-1). The mice were acclimated at 21 to 25° C. under a 50 to 60% relative humidity condition for 12 hours before being used in the experiments, and a total of 18 mice were treated with an AzA diluted with distilled water at 50 mg/kg of body weight and distilled water as a control through oral administration for 6 weeks. The mice used in the experiments were fed a high-fat diet containing 60% fat (D12492, Research Diets, Inc) to induce fatty liver, and then a body weight was measured every week.
# The measurement of the concentration of triglycerides in liver tissue was performed by homogenizing the obtained liver tissue of a mouse in 600 μL of acetone (Daejung, Korea), storing the homogenate at 4° C. for 24 hours, and obtaining a fat part by centrifugation at 12000 rpm for 10 minutes. The fat part was dried, dissolved in 95% ethanol, quantified using a Cobas C11 autoanalyzer (Roche, Basel, Switzerland), and normalized with a liver weight.
# RNA was extracted from liver tissue, and the expression of PPARα and PPARα downstream genes such as Acox1, Cpt1a and Hmgcs2 were analyzed by qPCR according to the method of Example 3-1 described above.
# To evaluate fatty acid oxidation, 100 mg of liver tissue was homogenized in a 0.25 M cold sucrose solution, centrifuged at 600 rpm and 4° C. thereby obtaining a supernatant, and then 50 μL of 10% Triton X-100 was added to 450 μL of the supernatant. Subsequently, 5 μL of the sample was mixed with 950 μL of 50 mM Tris-HCl, 10 μL of 20 mM NAD, 3 μL of 0.33 M dithiothreitol, 5 μL of 1.5% BSA, 5 μL of 2% Triton X-100, 10 μL of 10 mM CoA, and 10 μL of 1 mM FAD. The mixture was mixed with 2 μL of 5 mM palmitoyl-CoA, reacted at 37° C. and analyzed at 340 nm for 5 minutes using a spectrophotometer.
# A C57BL/6J mouse and an Olfr544 KO mouse were treated with HFD and an AzA for 6 weeks and housed in a metabolic cage for three days, and the result at day 3 was analyzed as an experimental result. An oxygen consumption amount (VO2) and a carbon dioxide production amount (VCO2) were analyzed using an Oxylet Physiocage System (Panlab/Harvard apparatus, Cornella, Spain) and suiteMETABOLISM (V2.2.01, Panlab) software. A respiratory quotient (RQ) was calculated using the formula VCO2/VO2, and energy expenditure was analyzed using the formula EE=VO2×1.11×(3.815+1.232×RQ). The oxidation of a free fatty acid was calculated using the formula (1.6946×VO2)−(1.7012×VCO2).
# An AzA (100 mg/kg) was intraperitoneally administered, and then concentration of a glycerol, which is a body fat decomposition marker, was measured. […] To measure glucose resistance and insulin resistance, a glucose and insulin resistance test was performed under a condition, in which glucose ([…]) and insulin (0.35 unit/kg/bw) are administered to a mouse.
# Olfr544 KO mouse = assay: Fatty liver inhibitory effect in high-fat diet Olfr544 KO mouse; type: in vivo
# Experimental: as §1, with “week. […] An oxygen consumption amount (VO2) and a carbon dioxide production amount (VCO2) were analyzed using an Oxylet Physiocage System (Panlab/Harvard apparatus, Cornella, Spain) and suiteMETABOLISM (V2.2.01, Panlab) software. A respiratory quotient (RQ) was calculated using the formula VCO2/VO2, and energy expenditure was analyzed using the formula EE=VO2×1.11×(3.815+1.232×RQ). The oxidation of a free fatty acid was calculated using the formula (1.6946×VO2)−(1.7012×VCO2). An AzA (100 mg/kg) was intraperitoneally administered, and then concentration of a glycerol, which is a body fat decomposition marker, was measured. […] To measure glucose resistance and insulin resistance, a glucose and insulin resistance test was performed under a condition, in which glucose ([…]) and insulin (0.35 unit/kg/bw) are administered to a mouse.” for “week.”
# mice fed a high-fat diet = assay: Comparison of AzA-added and barley-added high-fat diets in mice; type: in vivo, mouse; conditions: 6 weeks
# Experimental: A diet, in which an AzA (0.5 g/kg diet) or 10% (w/w) barley was added to a high-fat diet, was administered to mice for 6 weeks.
# [2] = HFD and AzA for 6 weeks, metabolic cage day 3
# [3] = high-fat diet, AzA 50 mg/kg oral, 6 weeks
# [4] = high-fat diet, AzA 50 mg/kg oral, 6 weeks, compared with control group
# [5] = Olfr544 KO mouse, HFD and AzA for 6 weeks
# [6] = AzA (0.5 g/kg diet) added to high-fat diet
# [7] = AzA (0.5 g/kg diet) or 10% (w/w) barley added to high-fat diet, between groups
smiles,measurement,setting,value
"O=C(O)CCCCCCCC(=O)O [AzA, nonanedioic acid]",cytotoxicity (MTT assay),Hepa1c1c-7 cells,toxicity was not exhibited at every concentration
same,glucose resistance (glucose resistance test),[1],significantly improved
same,insulin resistance (insulin resistance test),[1],significantly improved
same,abdominal fat (microCT),[1]; AzA 50 mg/kg/day,significantly decreased
same,total fat amount (microCT),[1]; AzA 50 mg/kg/day,significantly decreased
same,blood glycerol concentration (body fat decomposition marker),[1]; AzA 100 mg/kg intraperitoneally,stimulated the decomposition of body fats
same,oxidation of free fatty acids (indirect calorimetric analysis),[1]; [2],increase
same,respiratory quotient (indirect calorimetric analysis),[1]; [2],decrease
same,expression of PPARα and a target gene thereof in liver tissue,[1]; [3],significantly increased
same,triglyceride concentration in liver tissue,[1]; [3],decreased
same,body weight,[1]; [4],decreased
same,fatty acid oxidation rate in liver tissue,[1]; [4],increased
same,glucose resistance (glucose resistance test),Olfr544 KO mouse; KO mouse,not observed
same,insulin resistance (insulin resistance test),Olfr544 KO mouse; KO mouse,not observed
same,abdominal fat (microCT),"Olfr544 KO mouse; KO mouse, AzA 50 mg/kg/day",no such effects
same,total fat amount (microCT),"Olfr544 KO mouse; KO mouse, AzA 50 mg/kg/day",no such effects
same,blood glycerol concentration (body fat decomposition marker),"Olfr544 KO mouse; KO mouse, AzA 100 mg/kg intraperitoneally",no effect
same,oxidation of free fatty acids (indirect calorimetric analysis),Olfr544 KO mouse; [5],these effects were not shown
same,respiratory quotient (indirect calorimetric analysis),Olfr544 KO mouse; [5],these effects were not shown
same,ALT concentration (hepatotoxicity marker),mice fed a high-fat diet; [6],decreased
same,LDL cholesterol concentration,mice fed a high-fat diet; [6],significantly decreased
same,triglyceride concentration in liver tissue (fatty liver lesion marker),mice fed a high-fat diet; [6],significantly decreased
same,HDL cholesterol concentration,mice fed a high-fat diet; [7],no differences
same,fasting blood glucose concentration,mice fed a high-fat diet; [7],no differences
same,total cholesterol concentration,mice fed a high-fat diet; [7],no differences
same,triglyceride concentration (blood),mice fed a high-fat diet; [7],no differences
same,body weight,"mice fed a high-fat diet; AzA (0.5 g/kg diet) or 10% (w/w) barley added to high-fat diet, versus high-fat diet group",significantly decreased

# Reference: patent US10786475B2, “Method for preventing, treating, or improving fatty liver by administering effective amounts of azelaic acid to a subject” (Korea University Research and Business Foundation, priority 2018, dated 2020)
